Holding throughout (assay type): biochemical
Experiment [1] addresses T1, PTPN2 (Homo sapiens, UniProt P17706).
T1 construct: full length human PTPN2 (TC45 variant), 6xHis-tagged
T1 sequence (P17706 1-381 limits assumed): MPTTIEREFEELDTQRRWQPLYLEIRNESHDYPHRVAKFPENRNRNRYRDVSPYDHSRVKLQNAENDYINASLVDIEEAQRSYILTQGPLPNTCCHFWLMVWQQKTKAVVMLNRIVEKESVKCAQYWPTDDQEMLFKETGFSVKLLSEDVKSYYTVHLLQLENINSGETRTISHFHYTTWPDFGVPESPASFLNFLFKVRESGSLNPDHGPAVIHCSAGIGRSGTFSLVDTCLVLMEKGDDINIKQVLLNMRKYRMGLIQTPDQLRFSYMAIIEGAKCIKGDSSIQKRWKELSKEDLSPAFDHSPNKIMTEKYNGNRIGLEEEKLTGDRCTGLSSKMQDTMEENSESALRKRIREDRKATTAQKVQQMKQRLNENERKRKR
The experiment can be described thus: RP-UFLC phosphatase assay with FAM-pStat1 peptide; time- and concentration-dependent inactivation kinetics (ki […] ^-1 min^-1).

Experiment [2] has as its target T1, PTPN2. The experiment can be described thus: RP-UFLC phosphatase assay with FAM-pStat1 peptide.
The target in experiment [3] is T1, PTPN2. The experiment can be described thus: dephosphorylation of chromogenic substrate by purified enzyme.

pIC50: −log10 of the molar value.

For orientation: pIC50 means the IC50 on a negative log10 scale, so that one unit is a factor of ten. Higher therefore signals a low IC50. In the case of `C=CS(=O)(=O)Oc1ccccc1` [PVSN, phenyl vinyl sulfonate], the pIC50 against PTPN2 [1] is 3.74. The compound `[O]=[V]([OH])([OH])[OH]` [orthovanadate] gave a pIC50 against PTPN2 [2] of approximately 6.00. `O=[N+]([O-])c1ccc(OP(=O)(O)O)cc1` [pNPP, p-nitrophenyl phosphate]: the “dephosphorylation of chromogenic substrate by purified enzyme” value at PTPN2 [3] is “Purified PTPN2 was functional as demonstrated by the dephosphorylation of the non-proteinaceous and non-specific chromogenic substrate p-nitrophenyl phosphate (pNPP)”.
